The values below are quoted from earlier work in patent US6515132B2, “Process for the preparation of rosiglitazone maleate” (priority 2000, dated 2003).

The conditions of the data set: dose given in diet; comparative activity data for thiazolidinediones being clinically progressed.
On to `O=C1NC(=O)C(Cc2ccc3c(c2)CC[C@H](Cc2ccccc2)O3)S1` (stereo partly drawn) [Englitazone], for which the Minimum effective dose is 200 μmol/kg diet.

As for `CN(CCOc1ccc(CC2SC(=O)NC2=O)cc1)c1ccccn1.O=C(O)/C=C\C(=O)O` (stereo not drawn) [Rosiglitazone maleate, 5-[4-[2-(N-methyl-N-(2-pyridyl)amino)ethoxy]benzyl]thiazolidine-2,4-dione maleate], the Minimum effective dose is given as 3 μmol/kg diet. For `CN(CCOc1ccc(CC2SC(=O)NC2=O)cc1)c1ccccn1` (stereo not drawn) [Rosiglitazone, 5-[4-[2-(N-methyl-N-(2-pyridyl)amino)ethoxy]benzyl]thiazolidine-2,4-dione], the Minimum effective dose is on record as 3 μmol/kg diet.
